Test results from patent US11389423B2, “Pharmaceutical composition, excipient for the composition and use of the composition” (priority 2018, dated 2022).

Tests used:
male rabbits = assay: Arterial blood gas analysis; format: in vivo, New Zealand rabbits; details: male rabbits, 17, 51 and 170 mg/kg by gavage
Method: Male New Zealand rabbits (n=6 per group) were used for pharmacological safety tests. All tests were performed orally (route recommended for humans) and the investigated parameters were determined after a single administration of CBD-SINT. CBD-SINT doses were determined by allometric extrapolation from the average dose used in human patients (25 mg/kg).
The dose of 51 mg/kg was used as the intermediate dose, stipulating a higher and a lower dose. Three dose ranges were used according to the Guide for Conducting Non-Clinical Toxicology and Pharmacological Safety Studies Necessary for Drug Development (ANVISA, 2013; Version 1.2). Thus, the doses used were 17, 51 and 170 mg/kg of CBD-SINT.
After 6-h fasting, three doses of CBD-SINT (17, 51 and 170 mg/kg) were administered to different groups of male rabbits by gavage. […] The respiratory rate was determined using a Kofranyi-Michaelis respirometer (Murphy, 2002). […] All parameters below were determined on a Cobas b 221 multiparametric blood gas analyzer (Roche Diagnostics, Rotkreuz, Switzerland): pH, PCO2 (mm Hg), PO2 (mm Hg), SO2(%), Htc (%), tHb (g/dL), Na+ (mmol/L), K+ (mmol/L), Ca2+ (mmol/L), Cl− (mmol/L), glucose (mg/dL), lactate (mmol/L), O2Hb (%), HHb (%), P50 (mm Hg), H+ (nmol/L), BE (nmol/L), BEecf (nmol/L), BB (mmol/L), cHCO3 (mmol/L), ctCO2 (B) (mmol/L), ctCO2 (P) (mmol/L) and ctO2 (% by volume).

[1] = test system: polychromatic erythrocytes; details: rats male and female, 500, 1000 and 2000 mg/kg orally
Method: To perform the micronucleus test (Schmid, 1976), different groups of rats (male and female; n=10) received three doses of CBD (500, 1000 and 2000 mg/kg) orally. The negative control group received placebo by gavage and the positive control was treated with cyclophosphamide monohydrate (20 mg/kg—Sigma-Aldrich) intraperitoneally. After 24 hours (cyclophosphamide) and 48 hours (CBD-SINT and vehicle) the end of treatments, the animals were euthanized by decapitation. The femurs were removed, the proximal epiphysis was removed to expose the medullary canal and, with the aid of a 13×4.5 mm needle and 3 mL NaCl solution (150 mM), the marrow was removed, washing the medullary canal with NaCl solution. The material was transferred to glass tubes and centrifuged at 1000 rpm/5 min. After centrifugation, the supernatant was discarded, and the deposit was resuspended with a 4% formaldehyde solution and slightly homogenized with the aid of a Pasteur pipette. A drop of this cell suspension was placed on a clean, dry slide, and then the smear was performed. The slides were dried at room temperature and, after 24 hours, stained with Leishman eosin-methylene blue and subjected to microscopic analysis. To determine the number of micronuclei, 2000 polychromatic erythrocytes were counted per animal (1000 in each slide) using an optical microscope, at 400× magnification. The analysis of the slides was blind and performed by a single evaluator.

[2] = test system: rats with 6-OHDA microinfusion into the substantia nigra; assay: Morris water maze (cued test/memory version), 6-OHDA model; format: in vivo; details: 6-OHDA rats, 36 or 120 mg/kg orally, day 18 to day 28
Method: For the experiments with 6-OHDA, the animals were divided into the following groups: • 6-OHDA+placebo • 6-OHDA+CBD-SINT 12 mg/kg • 6-OHDA+CBD-SINT 36 mg/kg • 6-OHDA+CBD-SINT 120 mg/kg • Sham+placebo • Naive
After the recovery period, CBD-SINT and placebo were administered orally (gavage) for 28 days. Locomotor activity tests were performed only at the end of treatments (day 28). The memory tests (Morris water maze) were performed daily from day 18 to day 28 (FIG. 14).
The rats were submitted to stereotactic surgery (stereotactic—David Kopf, model 957L) and received bilateral microinfusion of MPTP or 6-OHDA (different groups of rats) directly into the substantia nigra. For surgery, the following stereotaxic coordinates were used: anteroposterior: 5.0 mm from the bregma; mediolateral: ±2.1 mm from the midline and dorsoventral: −7.7 mm from the cranial vault (Paxinos and Watson, 1986). Then, 100 μg MPTP (diluted in 1 μL saline, with a flow of 0.33 μL/min) or 8 μg 6-OHDA (diluted in 2 μL saline with 0.2 μg/μL ascorbic acid, with a flow rate of 0.33 μL/min) were injected. […]
The animals were subjected to the same procedure until the four starting points are completed. […] The latency (time it takes the animals to find the platform) and the speed of the animals were quantified by the 2020 Plus Tracking System software.

C=C(C)[C@@H]1CCC(C)=C[C@H]1c1c(O)cc(CCCCC)cc1O [CBD-SINT, Cannabidiol]
arterial blood gases, electrolytes and metabolites (pH, PCO2, PO2, SO2, Htc, tHb, Na+, K+, Ca2+, Cl-, glucose, lactate, O2Hb, HHb, P50, H+, BE, BEecf, BB, cHCO3, ctCO2, ctO2) vs placebo (male rabbits): none of the CBD-SINT doses changed | ratio of polychromatic/normochromatic erythrocytes (PCE/NCE ratio) vs placebo [1]: did not cause any significant change | MNPCE number vs placebo (C-) ([1]; 48 hours): in a similar way to that found for animals treated only with placebo | latency time to find the platform (memory deficit) [2]: did not show this deficit
